Assay results taken from ChEMBL document CHEMBL1201862, “PubChem BioAssay data set” (2004).
Active and inactive are the calls of the source.

How the values were obtained:
[1] = molecular target: Muscarinic acetylcholine receptor M1 (Rattus norvegicus, UniProt P08482); test: concentration-dependent potentiation of ACh at M1 – cell-based, calcium mobilization, CHO-K1, ACh EC20, dose response (AID 2425); assay type: functional
Bcl-2-related protein A1 [2] = molecular target: T1, Bcl-2-related protein A1 (Mus musculus, UniProt Q07440); test: displacement of Bid BH3 peptide from Bfl-1 – biochemical, fluorescence polarization, FITC-Bid, mouse, primary screen (AID 432)
T1 sequence (Q07440 whole entry): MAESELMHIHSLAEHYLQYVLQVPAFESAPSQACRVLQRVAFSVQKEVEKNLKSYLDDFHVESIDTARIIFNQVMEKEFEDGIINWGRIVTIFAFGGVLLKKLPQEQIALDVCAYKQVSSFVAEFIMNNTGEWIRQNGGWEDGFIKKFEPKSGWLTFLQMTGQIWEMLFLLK

Bcl-2-related protein A1 [3] = molecular target: T1, Bcl-2-related protein A1; test: small-molecule antagonists of Bfl-1/BH3 interaction – biochemical, TR-FRET, mouse Bfl-1, confirmation (AID 621);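 further: TR-FRET binding of GST-Bfl-1 to FITC-labelled Bid peptide via terbium antibody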
Leucine aminopeptidase = molecular target: T2, Leucine aminopeptidase (Plasmodium falciparum 3D7, UniProt Q8IL11); test: P. falciparum M17LAP inhibitors, primary screen, biochemical, fluorogenic H-Leu-NHMec substrate, 1536-well (AID 1619); assay type: functional
T2 sequence (Q8IL11 whole entry): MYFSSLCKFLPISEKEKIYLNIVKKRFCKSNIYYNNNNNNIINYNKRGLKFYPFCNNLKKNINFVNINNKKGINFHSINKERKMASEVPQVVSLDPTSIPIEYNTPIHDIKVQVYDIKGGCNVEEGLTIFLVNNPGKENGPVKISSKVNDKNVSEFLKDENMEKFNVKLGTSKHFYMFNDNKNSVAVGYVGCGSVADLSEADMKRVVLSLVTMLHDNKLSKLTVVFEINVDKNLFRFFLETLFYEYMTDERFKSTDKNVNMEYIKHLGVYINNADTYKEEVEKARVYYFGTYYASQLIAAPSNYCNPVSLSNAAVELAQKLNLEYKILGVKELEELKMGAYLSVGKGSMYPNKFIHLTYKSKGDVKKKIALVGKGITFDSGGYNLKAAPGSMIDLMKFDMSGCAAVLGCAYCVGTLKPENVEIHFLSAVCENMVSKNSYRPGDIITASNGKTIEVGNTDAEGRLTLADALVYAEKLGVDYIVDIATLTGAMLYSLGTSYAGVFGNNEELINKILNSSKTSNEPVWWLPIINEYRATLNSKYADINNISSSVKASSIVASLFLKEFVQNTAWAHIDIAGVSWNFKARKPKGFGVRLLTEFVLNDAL

Procathepsin L [4] = molecular target: T3, Procathepsin L (Homo sapiens, UniProt P07711); test: CTSL1 protease inhibition – biochemical, QFRET, 1536-well, counter-screen for M1/M17 aminopeptidase inhibitor project, dose response (AID 2214)
[5] = molecular target: T4, Heat shock factor protein 1 (Mus musculus, UniProt P38532); test: enhancement of HSF1-driven luciferase signal – cell-based, NIH3T3, luminescence, dose retest, confirmation (AID 435004); assay type: functional;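 further: stress induced by proteasome inhibitor MG132 added 30 min after compound; luciferase reporter driven by HSF1 response element in NIH3T3 cells; actives raise luminescence as potentiators of the MG132 stress response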
T4 sequence (P38532 whole entry): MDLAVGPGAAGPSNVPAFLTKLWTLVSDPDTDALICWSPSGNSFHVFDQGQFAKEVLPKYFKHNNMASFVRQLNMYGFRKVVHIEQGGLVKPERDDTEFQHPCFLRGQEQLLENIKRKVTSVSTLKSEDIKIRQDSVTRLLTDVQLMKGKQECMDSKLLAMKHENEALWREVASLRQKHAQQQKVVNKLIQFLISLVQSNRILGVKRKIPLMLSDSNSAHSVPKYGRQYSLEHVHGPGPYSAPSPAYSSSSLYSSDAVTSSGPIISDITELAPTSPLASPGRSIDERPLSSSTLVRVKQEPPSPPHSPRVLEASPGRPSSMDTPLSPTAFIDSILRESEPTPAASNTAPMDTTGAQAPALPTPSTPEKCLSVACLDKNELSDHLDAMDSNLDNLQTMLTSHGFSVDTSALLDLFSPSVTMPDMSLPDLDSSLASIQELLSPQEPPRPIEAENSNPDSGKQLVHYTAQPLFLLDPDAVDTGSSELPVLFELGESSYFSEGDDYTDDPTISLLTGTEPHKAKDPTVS

Aspartyl aminopeptidase [6] = molecular target: T5, Aspartyl aminopeptidase (Plasmodium falciparum 3D7, UniProt Q8I2J3); test: Counterscreen for inhibitors of M1 and M17 aminopeptidases: QFRET-based biochemical high throughput dose response assay for inhibitors of the Plasmodium falciparum M18 Aspartyl Aminopeptidase (PFM18AAP). [Related PubChem assays: 1619 (Screening assay (M17LAP inhibitors).), 1445 (Screening assay (M1AAP inhibitors).)]
T5 sequence (Q8I2J3 whole entry): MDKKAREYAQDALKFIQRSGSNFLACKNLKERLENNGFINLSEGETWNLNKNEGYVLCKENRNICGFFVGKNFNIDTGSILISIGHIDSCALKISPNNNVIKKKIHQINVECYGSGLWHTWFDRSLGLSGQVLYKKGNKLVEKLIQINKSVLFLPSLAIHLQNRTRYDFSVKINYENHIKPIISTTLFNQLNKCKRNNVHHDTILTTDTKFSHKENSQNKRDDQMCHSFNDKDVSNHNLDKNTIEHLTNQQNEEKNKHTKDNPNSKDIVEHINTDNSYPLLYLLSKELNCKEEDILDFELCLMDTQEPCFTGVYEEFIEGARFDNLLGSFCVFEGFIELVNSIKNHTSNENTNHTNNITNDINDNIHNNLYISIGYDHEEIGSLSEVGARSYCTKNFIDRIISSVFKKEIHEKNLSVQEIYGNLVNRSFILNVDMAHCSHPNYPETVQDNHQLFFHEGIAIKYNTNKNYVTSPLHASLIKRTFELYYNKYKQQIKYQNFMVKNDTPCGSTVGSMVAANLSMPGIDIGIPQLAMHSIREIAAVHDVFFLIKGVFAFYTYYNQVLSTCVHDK

[7] = viability loss of HPDE-C7K cells – cell-based, fluorescence, HTS, primary screen (AID 431); assay type: functional; settings: Homo sapiens
[8] = HPDE-C7 pancreatic duct cell viability loss – fluorescence, HTS (AID 430); assay type: functional, cell-based; settings: Homo sapiens
Cytochrome P450 2C19 = Cytochrome P450 2C19 (Homo sapiens, UniProt P33261); test: qHTS Assay for Inhibitors and Substrates of Cytochrome P450 2C19. [Related pubchem assays: 410 ]; assay type: ADME; settings: read-out: Potency
NADPH oxidase 1 = NADPH oxidase 1 (Homo sapiens, UniProt Q9Y5S8); test: Late-stage luminescence-based cell-based dose response assay to identify inhibitors of NADPH oxidase 1 (NOX1): Purchased analogs 2.; assay type: functional
[9] = molecular target: T4, Heat shock factor protein 1; test: decrease of HSF1-responsive luciferase luminescence – cell-based, NIH3T3, dose retest, confirmation (AID 2382); assay type: functional;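 further: NIH3T3 fibroblasts with HSF1-driven luciferase reporter stressed by proteasome inhibitor MG132; luminescence from HSF1-driven luciferase expression after 8 hours of MG132 stress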
[10] = molecular target: Photoreceptor-specific nuclear receptor (Homo sapiens, UniProt Q9Y5X4); test: ligands suppressing NR2E3 nuclear receptor activity – biochemical, TR-FRET, dose response (AID 463256); assay type: functional
[11] = molecular target: Peroxisome proliferator-activated receptor gamma/Nuclear receptor corepressor 2 (Homo sapiens, UniProt P37231+Q9Y618); test: Counterscreen for NR2E3 inverse agonists: TR-FRET-based biochemical high throughput dose response assay to identify inverse agonists of the interaction between peroxisome proliferator-activated receptor gamma (PPARg) and nuclear receptor co-repressor 2 (NCOR2).; assay type: functional
cells = assay type: functional
[12] = HepG2 cell cytotoxicity, dose response, cytotoxicity control for non-replicating M. tuberculosis project (AID 489018); assay type: functional; settings: Mycobacterium tuberculosis
INS1 = test: INS-1E survival protection against cytokine death – cell-based, luminescence, retest, dose response (AID 449756); assay type: functional; settings: Rattus norvegicus;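 further: cell death triggered by IL-1 beta plus TNF-alpha plus IFN-gamma mixture; protective hits raise ATP signal compared with cytokine alone wells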
BJ [13] = test: BJ-TERT-LT-ST fibroblast viability loss – cell-based, RAS-independent, luminescence, dose response (AID 1935); assay type: functional; settings: Homo sapiens;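 further: BJ fibroblasts immortalized with TERT plus LT and ST oncogenes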
BJ [14] = test: BJ-TERT fibroblast viability loss – cell-based, RAS-independent, luminescence, dose response (AID 1933); assay type: functional; settings: Homo sapiens
[15] = DRD fibroblast viability loss – cell-based, non-viral oncogenic, luminescence, dose response (AID 1934); assay type: functional; settings: Homo sapiens
[16] = THP-1 cell cytotoxicity, dose response, cytotoxicity control for non-replicating M. tuberculosis project (AID 489025); assay type: functional
Nonstructural protein 1 = Nonstructural protein 1 (Influenza A virus, UniProt Q194T2); assay type: functional, Influenza A virus (A/California/07/2009(H1N1))
[17] = Luminescence-based dose response cell-based high throughput screening assay for cytotoxic compounds using the IEC-6 intestinal epithelial cell line. [Related pubchem assays: 1858 (Summary AID.), 1825 (Counterscreen.), 1907 (Confirmation screen.)]; assay type: functional
Vero [18] = test: cells; assay type: functional; settings: Chlorocebus sabaeus
Vero [19] = test: cells; assay type: functional, cell-based; settings: Chlorocebus sabaeus
BJ [20] = test: growth inhibition of engineered Ras-driven BJ cells – cell-based, alamar blue fluorescence, cherrypicked samples, dose response (AID 2631); assay type: functional; settings: Homo sapiens;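 further: confirmatory dose-response assay in RAS-dependent BJ fibroblasts engineered with TERT, LT and ST, with cytotoxicity read by fluorescence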
[21] = Vero E6 cell cytotoxicity, dose response, cytotoxicity control for non-replicating M. tuberculosis project, secondary assay (AID 492998); assay type: functional, VeroE6; settings: Vero C1008
BJ [22] = test: cells; assay type: functional, cell-based; settings: Homo sapiens
[23] = molecular target: T6, Microphthalmia-associated transcription factor (Homo sapiens, UniProt O75030); test: reducers of TRPM1 reporter luminescence, concentration series – cell-based, SK-MEL-5, cherry-picked, set 3, MITF inhibitor project, dose response (AID 493073); assay type: functional;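 further: SK-MEL-5 melanoma cells with luciferase driven by the MITF target TRPM1 promoter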
T6 sequence (O75030 whole entry): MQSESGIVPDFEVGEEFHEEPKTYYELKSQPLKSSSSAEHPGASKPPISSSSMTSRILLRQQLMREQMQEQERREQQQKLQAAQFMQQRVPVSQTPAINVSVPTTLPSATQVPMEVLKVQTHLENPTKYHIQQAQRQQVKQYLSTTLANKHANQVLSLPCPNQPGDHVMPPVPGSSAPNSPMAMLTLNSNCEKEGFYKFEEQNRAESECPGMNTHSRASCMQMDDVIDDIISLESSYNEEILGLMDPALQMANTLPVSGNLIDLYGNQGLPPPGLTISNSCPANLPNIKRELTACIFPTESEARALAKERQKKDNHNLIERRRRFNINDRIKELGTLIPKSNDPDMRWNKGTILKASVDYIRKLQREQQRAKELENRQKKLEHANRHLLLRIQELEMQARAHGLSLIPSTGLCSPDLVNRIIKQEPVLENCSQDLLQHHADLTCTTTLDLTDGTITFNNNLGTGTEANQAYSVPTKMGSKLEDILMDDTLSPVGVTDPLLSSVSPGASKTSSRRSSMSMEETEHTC

[24] = NIH-3T3 fibroblast cytotoxicity, dose response, cytotoxicity control, cell-based, fluorescence, Alamar Blue, secondary assay (AID 2327); assay type: functional;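 further: NIH-3T3 mouse fibroblasts cultured with fluconazole at 8 µg/mL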
Procathepsin L [25] = molecular target: T3, Procathepsin L
Paired box protein Pax-8 = Paired box protein Pax-8 (Homo sapiens, UniProt Q06710); test: PAX8 transcriptional activity inhibition in RMG-I – RMG-I cells, luciferase, cherry-pick, dose response (AID 687027); assay type: functional, cell-based;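 further: luciferase reporter driven by Pax8 target thyroperoxidase promoter measured by SteadyGlo luminescence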
Vero [26] = test: mammalian cell viability reduction – secondary assay, cytotoxicity control for West Nile virus antiviral project, dose response (AID 1650); assay type: functional; settings: Chlorocebus sabaeus
Aspartyl aminopeptidase [27] = molecular target: T5, Aspartyl aminopeptidase
[28] = fluconazole-exposed Candida albicans growth modulators – fluorescence, retest, confirmation (AID 2467); assay type: functional, cell-based
Vero [29] = test: inhibition of WNV-induced cytopathic effect – cell-based, CPE readout (AID 1621); assay type: functional; settings: Chlorocebus sabaeus

T3 sequence (P07711 whole entry): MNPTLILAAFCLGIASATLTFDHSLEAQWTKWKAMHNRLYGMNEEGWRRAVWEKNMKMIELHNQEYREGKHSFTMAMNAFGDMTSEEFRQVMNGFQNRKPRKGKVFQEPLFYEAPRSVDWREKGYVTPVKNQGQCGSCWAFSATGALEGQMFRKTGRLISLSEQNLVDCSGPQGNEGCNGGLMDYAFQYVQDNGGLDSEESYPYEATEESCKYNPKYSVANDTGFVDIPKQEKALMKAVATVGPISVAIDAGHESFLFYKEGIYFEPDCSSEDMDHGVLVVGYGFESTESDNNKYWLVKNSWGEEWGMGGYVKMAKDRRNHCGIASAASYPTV
Chain of Muscarinic acetylcholine receptor M1 (P08482 whole entry): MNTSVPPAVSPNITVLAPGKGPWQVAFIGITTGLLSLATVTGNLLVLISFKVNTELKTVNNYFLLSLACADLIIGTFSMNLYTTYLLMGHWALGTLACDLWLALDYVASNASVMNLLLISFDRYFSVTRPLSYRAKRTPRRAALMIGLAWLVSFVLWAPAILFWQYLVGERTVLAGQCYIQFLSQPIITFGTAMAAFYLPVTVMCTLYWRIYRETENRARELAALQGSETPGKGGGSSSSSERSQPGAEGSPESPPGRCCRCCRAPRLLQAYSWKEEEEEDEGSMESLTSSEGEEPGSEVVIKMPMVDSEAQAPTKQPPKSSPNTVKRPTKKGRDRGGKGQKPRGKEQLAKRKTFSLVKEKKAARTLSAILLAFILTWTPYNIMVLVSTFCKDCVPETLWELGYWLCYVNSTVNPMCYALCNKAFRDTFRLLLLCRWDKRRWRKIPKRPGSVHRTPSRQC
Chain of Nonstructural protein 1 (Q194T2 whole entry): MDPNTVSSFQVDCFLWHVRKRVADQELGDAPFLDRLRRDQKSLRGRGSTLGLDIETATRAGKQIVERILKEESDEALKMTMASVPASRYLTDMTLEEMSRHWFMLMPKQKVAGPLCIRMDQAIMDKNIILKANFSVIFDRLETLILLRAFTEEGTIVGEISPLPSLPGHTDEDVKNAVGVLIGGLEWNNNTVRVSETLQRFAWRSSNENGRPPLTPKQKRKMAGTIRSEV
Chain of Paired box protein Pax-8 (Q06710 whole entry): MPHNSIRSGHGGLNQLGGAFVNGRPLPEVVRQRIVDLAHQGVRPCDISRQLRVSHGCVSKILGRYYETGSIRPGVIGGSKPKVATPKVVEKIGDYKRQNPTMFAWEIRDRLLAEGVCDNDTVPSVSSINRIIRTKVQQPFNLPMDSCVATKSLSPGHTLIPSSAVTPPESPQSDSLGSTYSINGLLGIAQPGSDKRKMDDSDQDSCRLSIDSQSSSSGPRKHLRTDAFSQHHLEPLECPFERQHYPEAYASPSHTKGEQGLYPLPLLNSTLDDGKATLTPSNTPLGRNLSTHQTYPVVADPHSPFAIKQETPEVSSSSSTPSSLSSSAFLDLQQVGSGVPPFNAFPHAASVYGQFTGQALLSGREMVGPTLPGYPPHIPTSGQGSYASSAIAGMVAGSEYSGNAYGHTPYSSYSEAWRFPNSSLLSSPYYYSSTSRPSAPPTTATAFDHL
Chain of Cytochrome P450 2C19 (P33261 whole entry): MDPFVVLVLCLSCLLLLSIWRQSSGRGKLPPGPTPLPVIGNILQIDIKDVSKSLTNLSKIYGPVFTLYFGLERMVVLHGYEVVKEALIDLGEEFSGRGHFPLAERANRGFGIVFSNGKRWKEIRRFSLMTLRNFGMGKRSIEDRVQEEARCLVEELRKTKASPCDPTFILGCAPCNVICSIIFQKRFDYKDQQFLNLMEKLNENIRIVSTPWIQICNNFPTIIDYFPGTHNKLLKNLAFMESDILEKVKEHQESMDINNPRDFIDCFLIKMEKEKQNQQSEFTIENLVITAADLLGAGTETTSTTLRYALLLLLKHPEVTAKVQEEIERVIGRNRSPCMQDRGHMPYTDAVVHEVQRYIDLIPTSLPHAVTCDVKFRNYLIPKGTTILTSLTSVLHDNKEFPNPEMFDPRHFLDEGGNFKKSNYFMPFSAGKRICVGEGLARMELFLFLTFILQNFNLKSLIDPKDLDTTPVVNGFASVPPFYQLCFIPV
Chain of NADPH oxidase 1 (Q9Y5S8 whole entry): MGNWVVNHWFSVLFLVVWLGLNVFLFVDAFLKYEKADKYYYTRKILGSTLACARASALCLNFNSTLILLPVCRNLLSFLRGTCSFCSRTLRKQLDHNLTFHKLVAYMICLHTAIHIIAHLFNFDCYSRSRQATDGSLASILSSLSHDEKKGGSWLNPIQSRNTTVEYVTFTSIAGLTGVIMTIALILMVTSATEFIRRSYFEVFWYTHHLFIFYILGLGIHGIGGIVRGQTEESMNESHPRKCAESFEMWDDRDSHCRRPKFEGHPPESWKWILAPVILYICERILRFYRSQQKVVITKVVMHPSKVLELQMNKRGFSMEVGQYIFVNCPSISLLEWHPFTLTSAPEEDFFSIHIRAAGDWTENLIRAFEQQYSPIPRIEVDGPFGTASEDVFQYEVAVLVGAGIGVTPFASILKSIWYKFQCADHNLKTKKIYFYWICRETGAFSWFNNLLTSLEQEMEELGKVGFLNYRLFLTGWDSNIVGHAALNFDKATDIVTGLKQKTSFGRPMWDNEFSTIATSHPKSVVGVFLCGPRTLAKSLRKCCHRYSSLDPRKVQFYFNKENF
Chain of Photoreceptor-specific nuclear receptor (Q9Y5X4 whole entry): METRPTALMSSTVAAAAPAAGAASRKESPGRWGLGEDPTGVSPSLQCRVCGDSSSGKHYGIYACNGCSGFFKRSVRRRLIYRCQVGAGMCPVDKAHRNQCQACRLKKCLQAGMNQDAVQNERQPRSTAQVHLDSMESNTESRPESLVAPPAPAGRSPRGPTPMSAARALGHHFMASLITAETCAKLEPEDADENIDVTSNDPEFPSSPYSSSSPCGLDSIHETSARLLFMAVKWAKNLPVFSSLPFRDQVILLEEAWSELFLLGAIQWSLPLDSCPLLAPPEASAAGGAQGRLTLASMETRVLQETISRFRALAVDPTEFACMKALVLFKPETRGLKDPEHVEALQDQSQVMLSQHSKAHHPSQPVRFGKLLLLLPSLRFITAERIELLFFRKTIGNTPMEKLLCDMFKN

Cc1cc(NC(=O)CS(=O)(=O)c2cn(Cc3cccc(F)c3)c3ccccc23)no1
EC50 [1]: 5.32 µM (active)

Brc1ccc(-c2nnc3ccc(N4CCN(c5ccccc5)CC4)nn23)cc1
IC50 (Bcl-2-related protein A1 [2]): 8.88 µM (active) | IC50 (Bcl-2-related protein A1 [3]): > 100 µM (not active)

O=C(CSc1nc(O)cc(=O)n1-c1ccccc1)Nc1ccc2c3c(cccc13)CC2
IC50 (Leucine aminopeptidase): 1.45 µM (active) | IC50 (Procathepsin L [4]): > 59.6 µM (not active) | EC50 [5]: > 260 µM (inactive) | IC50 (Aspartyl aminopeptidase [6]): > 73.5 µM (not active)

O=S(=O)(c1ccc(Cl)c(Cl)c1)N1CCc2nc3ccccc3n2CC1
EC50 [7]: > 20 µM (not active) | EC50 [8]: 0.49 µM (active)

O=c1cc(-c2ccc(O)cc2O)oc2ccccc12
AC50 (Cytochrome P450 2C19): 6.31 µM (inconclusive)

C=C(NNc1c(F)c(F)nc(F)c1F)c1ccc(-n2cncn2)cc1
IC50 (NADPH oxidase 1): > 17 µM (not active)

O=C(CCCCCn1c(=S)[nH]c2cc3c(cc2c1=O)OCO3)N1CCN(C(=O)c2ccco2)CC1
EC50 [9]: > 195 µM (not active) | IC50 [10]: 3.68 µM (active) | IC50 [11]: > 39.8 µM (not active)

COc1ccc(C(=O)N/N=C(\C)c2ccccn2)cc1OC
IC50 (cells): 3.01 µM (active) | CC50 [12]: 9.24 µM (active) | AC50 (INS1): 0.584 µM (active) | EC50 (BJ [13]): 4.38 µM (active) | EC50 (BJ [14]): 9.02 µM (active) | EC50 [15]: 5.69 µM (active) | CC50 [16]: 0.822 µM (active) | IC50 (Nonstructural protein 1): 2.93 µM (active) | IC50 [17]: 0.937 µM (active) | CC50 (Vero [18]): 2.83 µM (active) | IC50 (Vero [19]): > 25 µM (active) | EC50 (BJ [20]): 1.23 µM (active) | CC50 [21]: 2.88 µM (active) | EC50 (BJ [22]): 2.07 µM (active)

BrC(=C\c1ccccc1)/C=N/n1cnnc1
AC50 [23]: 7.26 µM (active) | EC50 [24]: > 150 µM (inconclusive) | IC50 (Procathepsin L [25]): > 59.6 µM (not active) | AC50 (Paired box protein Pax-8): 3.84 µM (active) | CC50 (Vero [26]): 6.4 µM (active) | IC50 (Aspartyl aminopeptidase [27]): 1.89 µM (active) | EC50 [28]: 1.01 µM (active) | IC50 (Vero [29]): 39.2 µM (active)
